# Data taken from patent US12679878B2, “CRF2 receptor agonists and their use in therapy” (SANOFI, priority 2020, dated 2026).
# Like-named read-outs stand apart in the source and are kept apart here. Starred links: 1 amine or outer side, 2 acyl side, 3 side chain; linkers in the order of their positions; H or OH if unused. Non-standard residues stand in square brackets, D forms with d. Residues, ends and D or L forms follow the SMILES beside them. Groups on a side chain read outwards from the residue. *: point of attachment. C16 diacid = O=C(O)CCCCCCCCCCCCCCC(=O)*; γGlu = O=C(O)[C@H](CCC(=O)[*:2])N[*:1]; Aib = CC(C)(N)C(=O)O
# Experiments:
# human CRF2α receptor = target: T1, human CRF2α receptor (Homo sapiens, UniProt Q13324); experiment: cAMP agonism at human CRF2α receptor in TeloHEAC cells, FA modified peptides (Example 19.9); format: cell-based; conditions: 0% HSA, relative to urocortin 2
# T1 construct: expressed in transfected cells; host or cells: TeloHEAC
# T1 sequence (Q13324 1-411): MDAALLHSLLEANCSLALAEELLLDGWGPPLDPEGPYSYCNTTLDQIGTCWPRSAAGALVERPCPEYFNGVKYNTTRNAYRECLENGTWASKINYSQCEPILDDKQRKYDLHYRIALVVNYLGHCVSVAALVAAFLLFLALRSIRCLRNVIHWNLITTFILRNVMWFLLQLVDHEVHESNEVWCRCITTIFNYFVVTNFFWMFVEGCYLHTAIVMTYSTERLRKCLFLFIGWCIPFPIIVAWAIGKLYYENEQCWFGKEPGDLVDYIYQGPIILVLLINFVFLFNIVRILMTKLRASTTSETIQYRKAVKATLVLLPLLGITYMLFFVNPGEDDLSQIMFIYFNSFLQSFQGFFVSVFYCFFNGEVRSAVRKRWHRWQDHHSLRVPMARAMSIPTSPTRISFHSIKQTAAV
# Procedure, shortened: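 Efficacy and EC50 are referenced to 100 nM urocortin 2 as 100%, with cAMP measured as the 665/620 nm HTRF ratio after 1 h at room temperature. Compounds (0.5 mM DMSO stock, 16 twofold dilutions) acted 30 min at 37 °C on CRF2α-expressing TeloHEAC cells, buffer containing IBMX and 0% or 0.2% HSA.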
# CRF1R receptor = target: T2, CRF1R receptor (Homo sapiens, UniProt P34998); experiment: cAMP activity at anti-target CRF1R, CHO-K1 cell line clone 2 (Example 19.10); format: cell-based; conditions: for Emax: 100% = Sauvagine at 100 nM
# T2 construct: host or cells: CHO-K1 clone 2
# T2 sequence (P34998 24-415): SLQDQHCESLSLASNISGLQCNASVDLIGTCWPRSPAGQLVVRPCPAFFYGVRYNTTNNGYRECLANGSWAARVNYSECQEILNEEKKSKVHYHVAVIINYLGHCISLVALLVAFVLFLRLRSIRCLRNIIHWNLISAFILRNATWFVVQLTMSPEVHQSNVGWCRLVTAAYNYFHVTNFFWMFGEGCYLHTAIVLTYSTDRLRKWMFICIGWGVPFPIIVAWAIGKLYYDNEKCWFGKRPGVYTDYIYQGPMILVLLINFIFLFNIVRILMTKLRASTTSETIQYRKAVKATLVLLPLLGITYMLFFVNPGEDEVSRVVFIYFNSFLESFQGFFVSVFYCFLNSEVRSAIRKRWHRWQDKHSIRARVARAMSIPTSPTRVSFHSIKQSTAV
# Procedure, shortened: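 A CRF1R-overexpressing CHO-K1 line (clone 2) was grown in F12/10% FBS/G418 and frozen in aliquots before use. The cAMP assay followed the preceding procedure, with 100% activation defined by Sauvagine at 100 nM.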
# [1] = In vitro plasma stability, rat plasma (Example 19.11); format: in vitro ADME, Sprague Dawley rats; design: remaining at 2 h: dose or concentration left out as unconfirmed; conditions: 37° C.; for remaining at 2 h: male, Sprague Dawley, rat, plasma
# Protocol: (§1) In vitro plasma metabolic stability was studied in male Sprague Dawley rats and human. Test compound were incubated […] for 2 hours at 37° C. At each time point (0, 0.25, 1 and 2 h), samples were prepared for analysis by means of a single step protein precipitation technique by adding 150 μL of ethanol, 0.1% formic acid to 50 μL aliquots of plasma. Samples were mixed by vortex for homogeneity and then subjected to centrifugation at 14000 rpm for 15 min. The supernatant (100 μL) was collected, diluted with 100 μL of water, 0.1% formic acid and analyzed by LC-HRMS (TripleTOF 6600+, AB Sciex). For each test compound, the area ratios at each time point were compared to the 0 h area ratio and converted to a percentage remaining.
# [2] = In vitro plasma stability, human plasma (Example 19.11); format: in vitro ADME; design: dose or concentration left out as unconfirmed; conditions: 37° C.
# Protocol: as §1
# [3] = Buffer solubility by LC-UV, pH 7.4 phosphate and pH 4.5 acetate (Example 19.11); format: physicochemical; conditions: target 10 mg/mL
# Protocol: (§2) As for example 15 above, also the chemical stability of representative examples of these FA modified peptides has been assessed, using LC-UV instead of light scattering. Solubility and chemical stability were studied in 100 mM phosphate buffer (pH 7.4) and 100 mM acetate buffer (pH 4.5). Test compound powders were dissolved in both buffers at a target concentration of 10 mg/mL and incubated for 1 hour at room temperature. After centrifugation at 2500 rcf for 15 minutes, […] of supernatant was diluted with […] of the incubation buffer and analyzed by LC-UV (Acquity UPLC-DAD, Waters). Solubility was calculated by comparing the peak area of the test compound in the buffer sample with the peak area of the same compound dissolved at 0.5 mg/ml in water:acetonitrile 1:1, 0.1% formic acid.
# [4] = Chemical stability as % loss by LC-UV, 28 days 40° C. vs 5° C. (Example 19.11); format: physicochemical
# Protocol: as §2
# From the centrifuged supernatant, two additional […] aliquots were collected and diluted with […] of incubation buffer. One aliquot was stored at 5° C., while the other was stored at 40° C. After 28 days, the samples were analyzed by LC-UV. Chemical stability was calculated as % loss using the following equations: • Chemical stability (as % loss)=[(purity after 28 days at 5° C.)−(purity after 28 days at 40° C.)]×100/(purity after 28 days at 5° C.) % purity=[(peak area compound)×100/(total peak area)]
# [5] = 0% HSA, CRF1R CHO-K1 clone 2, read-out: EC50 [nM] 0% HSA
# [6] = pH 7.4, 100 mM phosphate buffer
Structure (SMILES),EC50 (human CRF2α receptor) [nM],EC50 (CRF1R receptor; [5]) [nM],Emax (CRF1R receptor; CRF1R CHO-K1 clone 2) [%],"EC50 (CRF1R receptor; Table 20 side-to-side comparison, read-out: CRF1 EC50) [nM]",CRF1/CRF2 ratio (CRF1R receptor; ratio of CRF1 EC50 to CRF2 EC50),% remaining at 2 hours ([1]; 120 min) [%],remaining at 2 h [1] [%],remaining at 2 h [2] [%],"solubility at 1 h ([3]; pH 4.5, 100 mM acetate buffer) [µg/mL]","solubility at 1 h [3, 6] [µg/mL]",% loss (chemical stability) ([4]; pH 4.5) [%],% loss (chemical stability) ([4]; pH 7.4) [%]
CC[C@H](C)[C@H](N)C(=O)N[C@H](C(=O)N[C@@H](CC(C)C)C(=O)N[C@@H](CO)C(=O)N[C@@H](CC(C)C)C(=O)N[C@@H](CC(=O)O)C(=O)N[C@@H](C(=O)N1CCC[C@H]1C(=O)N[C@H](C(=O)N[C@@H](CCCCN)C(=O)N[C@@H](CC(C)C)C(=O)N[C@@H](CCCCNC(=O)CC[C@H](NC(=O)CCCCCCCCCCCCCCC(=O)O)C(=O)O)C(=O)N[C@@H](CCC(N)=O)C(=O)N[C@H](C(=O)N[C@@H](CC(C)C)C(=O)N[C@@H](CC(C)C)C(=O)N[C@@H](CCCCN)C(=O)N[C@@H](CCC(N)=O)C(=O)N[C@@H](CCC(=O)O)C(=O)N[C@@H](CCCNC(=N)N)C(=O)N[C@@H](CCC(N)=O)C(=O)N[C@@H](CCCCN)C(=O)NC(C)(C)C(=O)N[C@@H](CCC(N)=O)C(=O)N[C@@H](CCCNC(=N)N)C(=O)N[C@@H](CCC(=O)O)C(=O)N[C@@H](CCC(N)=O)C(=O)N[C@@H](C)C(=O)N[C@@H](CCC(=O)O)C(=O)N[C@@H](CCCCN)C(=O)N[C@@H](CC(N)=O)C(=O)N[C@@H](CCCCN)C(=O)N[C@@H](CCC(N)=O)C(=O)N[C@H](C(=O)N[C@@H](CC(C)C)C(=O)N[C@@H](C)C(=O)N[C@@H](CCC(N)=O)C(=O)N[C@H](C(N)=O)C(C)C)[C@@H](C)CC)[C@@H](C)CC)[C@@H](C)CC)C(C)C)C(C)C [compound 187] (H-IVLSLD[dV]PIKLK([γGlu-C16 diacid])QILLKQERQK[Aib]QREQAEKNKQILAQV-NH2),0.44,> 100,43.8,> 100,>500,92,102,97,8200,8800,0,31
CC[C@H](C)[C@H](N)C(=O)N[C@H](C(=O)N[C@@H](CC(C)C)C(=O)N[C@@H](CO)C(=O)N[C@@H](CC(C)C)C(=O)N[C@@H](CC(=O)O)C(=O)N[C@@H](C(=O)N1CCC[C@H]1C(=O)N[C@H](C(=O)NCC(=O)N[C@@H](CC(C)C)C(=O)N[C@@H](CCCCNC(=O)CC[C@H](NC(=O)CCCCCCCCCCCCCCC(=O)O)C(=O)O)C(=O)N[C@@H](CCC(N)=O)C(=O)N[C@H](C(=O)N[C@@H](CC(C)C)C(=O)N[C@@H](CC(C)C)C(=O)N[C@@H](CCCCN)C(=O)N[C@@H](CCC(N)=O)C(=O)N[C@@H](CCC(=O)O)C(=O)N[C@@H](CCCNC(=N)N)C(=O)N[C@@H](CCC(N)=O)C(=O)N[C@@H](CCCCN)C(=O)N[C@@H](CCCCN)C(=O)NC(C)(C)C(=O)N[C@@H](CCCNC(=N)N)C(=O)N[C@@H](CCC(=O)O)C(=O)N[C@@H](CCC(N)=O)C(=O)N[C@@H](C)C(=O)N[C@@H](CCC(=O)O)C(=O)N[C@H](C(=O)N[C@@H](CC(N)=O)C(=O)N[C@@H](CCCCN)C(=O)N[C@@H](CCC(N)=O)C(=O)N[C@H](C(=O)N[C@@H](CC(C)C)C(=O)N[C@@H](C)C(=O)N[C@@H](CCC(N)=O)C(=O)N[C@H](C(N)=O)C(C)C)[C@@H](C)CC)[C@@H](C)O)[C@@H](C)CC)[C@@H](C)CC)C(C)C)C(C)C [compound 194] (H-IVLSLD[dV]PIGLK([γGlu-C16 diacid])QILLKQERQKK[Aib]REQAETNKQILAQV-NH2; N-terminus assumed),0.11,> 100,21.6,,,,85,101,7300,700,,
